Patent US9394284B2, “Compounds act at multiple prostaglandin receptors giving a general anti-inflammatory response” (Allergan, Inc., priority 2010, dated 2016)

Assays:
Type in all cases: cell-based
[1] = biological target: T1, human prostanoid FP receptor (Homo sapiens, UniProt P43088); assay: FLIPR Ca2+ signaling antagonist assay, FP receptor stable cell line; conditions: HEK-293 EBNA stable cell line; standard agonist 17-phenyl-PGF2α; NA = inactive (no antagonism or Kb 10,000 nM); PAg, Ag not defined
T1 construct: expressed in transfected cells
T1 sequence (P43088 whole entry): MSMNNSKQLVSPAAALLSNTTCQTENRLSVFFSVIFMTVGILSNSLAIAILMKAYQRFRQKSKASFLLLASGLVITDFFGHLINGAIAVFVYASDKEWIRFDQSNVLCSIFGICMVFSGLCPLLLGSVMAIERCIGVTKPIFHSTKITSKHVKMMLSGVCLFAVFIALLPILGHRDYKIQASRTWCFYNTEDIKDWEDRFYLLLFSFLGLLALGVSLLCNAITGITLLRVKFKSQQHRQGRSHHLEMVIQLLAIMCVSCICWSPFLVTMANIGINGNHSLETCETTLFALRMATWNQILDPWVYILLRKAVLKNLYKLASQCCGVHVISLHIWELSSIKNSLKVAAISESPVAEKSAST
Summary of the method: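 Peak Fluo-4 fluorescence (ex 470–495, em 515–575 nm) was read for 3.5 min on FLIPR after agonist injection and expressed relative to 10^−6 M standard agonist. Cells were HEK-293 EBNA transfectants. Test compound was added 4.5 min beforehand at 0.1–30 μM, or 0.067–1 μM for TP.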

[2] = biological target: T2, human prostanoid DP1 receptor (Homo sapiens, UniProt Q13258); assay: FLIPR Ca2+ signaling antagonist assay, DP1 receptor stable cell line; conditions: HEK-293 EBNA stable cell line; standard agonist BW 245C; NA = inactive (no antagonism or Kb 10,000 nM); PAg, Ag not defined
T2 construct: expressed in transfected cells
T2 sequence (Q13258 1-359): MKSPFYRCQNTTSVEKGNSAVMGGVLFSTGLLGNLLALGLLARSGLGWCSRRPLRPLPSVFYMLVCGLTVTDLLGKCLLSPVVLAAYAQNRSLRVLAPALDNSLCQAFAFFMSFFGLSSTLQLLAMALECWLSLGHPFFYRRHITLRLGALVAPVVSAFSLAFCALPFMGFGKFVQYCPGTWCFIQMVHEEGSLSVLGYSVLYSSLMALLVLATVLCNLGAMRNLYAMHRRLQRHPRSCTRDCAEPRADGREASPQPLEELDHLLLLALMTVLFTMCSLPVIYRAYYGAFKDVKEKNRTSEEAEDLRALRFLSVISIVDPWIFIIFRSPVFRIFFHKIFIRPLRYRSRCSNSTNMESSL
Summary of the method: (§1)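 Functional antagonism measured by Ca2+ flux at 37 °C. Agonist ranges were 10^−11 to 10^−5 M, or 10^−12 to 10^−6 M for TP with U-46619; PGE2 for EP1/EP3, BW 245C for DP1. Compound spanned 0.1–30 μM except TP, 0.067–1 μM.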

[3] = biological target: T3, human prostanoid EP2 receptor (Homo sapiens, UniProt P43116); assay: FLIPR Ca2+ signaling antagonist assay, EP2 receptor stable cell line; conditions: HEK-293 EBNA stable cell line; standard agonist PGE2; NA = inactive (no antagonism or Kb 10,000 nM); PAg, Ag not defined
T3 construct: expressed in transfected cells
T3 sequence (P43116 whole entry): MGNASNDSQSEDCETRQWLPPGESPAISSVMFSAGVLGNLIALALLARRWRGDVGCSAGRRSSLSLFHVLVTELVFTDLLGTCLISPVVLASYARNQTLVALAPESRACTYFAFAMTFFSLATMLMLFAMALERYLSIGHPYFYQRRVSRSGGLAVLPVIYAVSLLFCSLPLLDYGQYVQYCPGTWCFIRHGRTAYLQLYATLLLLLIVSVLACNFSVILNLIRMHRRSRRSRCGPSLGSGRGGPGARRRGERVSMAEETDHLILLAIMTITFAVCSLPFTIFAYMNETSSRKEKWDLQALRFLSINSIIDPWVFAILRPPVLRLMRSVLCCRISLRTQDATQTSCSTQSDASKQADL
Summary of the method: as §1

[4] = biological target: T4, human prostanoid EP3 receptor (Homo sapiens, UniProt P43115); assay: FLIPR Ca2+ signaling antagonist assay, EP3 receptor stable cell line; conditions: HEK-293 EBNA stable cell line; standard agonist PGE2; NA = inactive (no antagonism or Kb 10,000 nM); PAg, Ag not defined
T4 construct: expressed in transfected cells
T4 sequence (P43115 1-390): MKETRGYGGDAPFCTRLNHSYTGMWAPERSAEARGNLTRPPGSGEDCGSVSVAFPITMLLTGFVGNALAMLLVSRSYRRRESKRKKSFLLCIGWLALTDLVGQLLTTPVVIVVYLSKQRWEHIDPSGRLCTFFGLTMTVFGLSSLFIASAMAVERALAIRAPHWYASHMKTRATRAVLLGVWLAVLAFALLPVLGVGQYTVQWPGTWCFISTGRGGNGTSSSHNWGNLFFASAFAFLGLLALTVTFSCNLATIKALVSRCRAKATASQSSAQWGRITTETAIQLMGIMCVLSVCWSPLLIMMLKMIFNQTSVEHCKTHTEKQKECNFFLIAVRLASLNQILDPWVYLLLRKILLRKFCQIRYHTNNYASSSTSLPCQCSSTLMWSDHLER
Description: The above compounds were tested for PG antagonist activity as follows using human recombinant prostanoid receptor (DP1, EP1-4, FP, IP and TP) stable cell lines:
In order to measure the response of Gs and Gi coupled prostanoid receptors as a Ca^2+ signal, chimeric G protein cDNAs were used. Stable cell lines over-expressing human prostanoid DP1, EP1-4, FP, IP, and TP receptors were established as follows:
Briefly, human prostanoid DP1, EP2, and EP4 receptor cDNAs were co-transfected with chimeric Gqs cDNA containing a haemagglutanin (HA) epitope; human prostanoid EP3 receptors were co-transfected with chimeric Gqi-HA; human EP1, FP, IP, and TP receptor cDNAs were expressed with no exogenous G-proteins. Gqs and Gqi chimeric cDNAs (Molecular Devices, Sunnyvale, Calif., U.S.A.), as well as cDNAs of prostanoid receptors, were cloned into a pCEP4 vector with a hygromycin B selection marker. Transfection into HEK-293 EBNA (Epstein-Barr virus nuclear antigen) cells was achieved by the FuGENE 6 transfection Reagent (Roche Applied Science, Indianapolis, Ind., USA). Stable transfectants were selected according to hygromycin resistance. Because Gqs and Gqi contained an HA epitope, G-protein expression was detected by Western blotting analysis using anti-mouse HA monoclonal antibody and horseradish peroxidase (HRP)-conjugated secondary antibody, while functional expression of prostanoid receptors was detected by FLIPR screening (Matias et al., 2004). These stable cell lines were validated using previously published antagonists at 10 μM against serial dilutions of standard agonists by FLIPR functional assays for Ca^2+ Signaling (as described below).
Ca^2+ signaling studies were performed using a FLIPR TETRA system (Molecular Devices, Sunnyvale, Calif., USA) in the 384-format. This is a high-throughput instrument for cell-based assays to monitor Ca^2+ signaling associated with GPCRs and ion channels. Cells were seeded at a density of 5×10^4 cells/well in BioCoat poly-D-lysine coated, black wall, clear bottom 384-well plates (BD Biosciences, Franklin lakes, NJ, USA) and allowed to attach overnight in an incubator at 37° C. The cells were then washed twice with HBSS-HEPES buffer (Hanks' balanced salt solution without bicarbonate and phenol red, 20 mM HEPES, pH 7.4) using an ELx405 Select CW Microplate Washer (BioTek, Winooski, Vt., USA). After 60 min of dye-loading in the dark using the Ca^2+-sensitive dye Fluo-4AM (Invitrogen, Carlsbad, Calif., USA), at a final concentration of 2×10^−6M, the plates were washed 4 times with HBSS-HEPES buffer to remove excess dye and leaving 50 μl of buffer in each well. The plates were then placed in the FLIPR TETRA instrument and allowed to equilibrate at 37° C. AGN-211377 was added in a 25 μl volume to each well to give final concentrations of 0.1 μM, 0.3 μM, 1 μM, 3 μM, 10 μM, and 30 μM; or 0.067 μM, 0.1 μM, 0.2 μM, 0.3 μM, 0.67 μM, and 1 μM for cells over-expressing TP receptors. After 4.5 minutes, a 7-point serial dilution of the standard agonist for the corresponding receptor, in a 25 μl volume was injected at the final concentrations from 10^−11M to 10^−5M in 10-fold serial dilution increments for cells expressing human recombinant DP1, EP1, EP2, EP3, EP4, FP, and IP receptors. The dose range for the standard agonist for human recombinant TP receptors was from 10^−12 M to 10^−6 M. HBSS-HEPES buffer was used as the negative control for the standard agonists. Cells were excited with LED (light emitting diode) excitation at 470-495 nm and emission was measured through an emission filter at 515-575 nm. Assay plates were read for 3.5 minutes using the FLIPR^TETRA. The peak increase in fluorescence intensity was recorded for each well. On each plate, negative controls, dose response of positive controls, and co-treatments of antagonist-agonist for each dose were in triplicates.
Standard agonists were as follows: DP=BW 245C, EP1-EP4=PGE2, FP=17-phenyl-PGF2α, IP=Cicaprost, and TP=U-46619. […]

SMILES	Kb [1]	DP1 (FLIPR) Kb [2]	Kb [3]	Kb [4]	Kb [2]	EP2 (FLIPR) Kb [3]
Cc1cc(CCC(=O)O)nn1Cc1cc(Cl)ccc1OCC(C)(C)C [Example 35, 3-[1-(5-Chloro-2-(2,2-dimethylropoxy)benzyl)-5-methyl-1H-pyrazol-3-yl]-propionic acid]	110 nM	PAg	3200 nM	5400 nM	–	–
Cc1cc(CCC(=O)NS(=O)(=O)C(F)(F)F)nn1Cc1cc(Cl)ccc1OCC1CCCC1 [Example 43, N-(3-[1-(5-Chloro-2-cyclopentylmethoxybenzyl)-5-methyl-1H-pyrazol-3-yl]-propionyl)C,C,C-trifluoromethanesulfon amide]	400 nM	PAg	–	1700 nM	–	PAg
CCC(CC)COc1ccc(Cl)cc1Cn1nc(CC(C)C(=O)O)cc1C (racemic) [Example 68, 3-{1-[5-Chloro-2-(2-ethyl-butoxy)-benzyl]-5-methyl-1H-pyrazol-3-yl}-2-methyl-propionic acid]	400 nM	–	45 nM	5200 nM	260 nM	–

Further lines, results first:

Kb [1]	DP1 (FLIPR) Kb [2]	Kb [3]	Kb [4]	Kb [2]	EP2 (FLIPR) Kb [3]	SMILES
90 nM	Ag	4500 nM	7100 nM	–	–	Cc1cc(CCC(=O)O)nn1Cc1cc(OC(F)(F)F)ccc1OCC1CCCC1 [Example 50, 3-[1-(2-Cyclopentylmethoxy-5-trifluoromethoxy-benzyl)-5-methyl-1H-pyrazol-3-yl]-propionic acid]
20 nM	–	500 nM	6600 nM	600 nM	–	Cc1cc(CCC(=O)O)nn1Cc1cc(OC(F)(F)F)ccc1OCc1ccc(Cl)cc1 [Example 51, 3-[1-[2-(4-Chloro-benzyloxy)-5-trifluoromethoxy-benzyl]-5-methyl-1H-pyrazol-3-yl]-propionic acid]
30 nM	–	2200 nM	2800 nM	100 nM	–	Cc1cc(CCC(=O)O)nn1Cc1cc(C(F)(F)F)ccc1OCc1ccc(Cl)cc1 [Example 52, 3-[1-[2-(4-Chloro-benzyloxy)-5-trifluoromethyl-benzyl]-5-methyl-1H-pyrazol-3-yl]-propionic acid]
